Measured values: patent publication US10793547B2, “Modulator of the cystic fibrosis transmembrane conductance regulator, pharmaceutical compositions, methods of treatment, and process for making the modulator” (Vertex Pharmaceuticals Incorporated, priority 2016, dated 2020)

Columns and labels:
Rat hepatocytes = assay: Hepatocyte clearance, rat hepatocytes; format: in vitro ADME; settings: percent unchanged
Rat IV and PO PK studies = format: in vivo, male Sprague-Dawley rats; settings: for RAT PLASMA-RAW IV-bolus CL_drg: nominal 3.0 mg/kg; for RAT PLASMA-RAW PO % F_drg / AUC(0-inf): nominal 3 mg/kg, PO; for AUC(0-inf): male, Sprague-Dawley, plasma, read-out: RAT PLASMA-RAW PO AUC (0-inf)_drg
Procedure: C. Experimental Protocol for Rat IV and PO PK Studies
The tested compound was administered to male Sprague-Dawley rats as a single nominal intravenous dose of 3.0 mg/kg as a solution in 10% NMP, 10% solution, 15% EtOH, 35% PEG400 and 30% D5W. The tested compound was also administered to male Sprague-Dawley rats at single nominal oral dose of 3 mg/kg as a solution in 5% NMP, 30% PEG400, 10% TPGS, 5% PVP-K30 at 5 mL/kg dose volume. Analyses of plasma and dose preparations were performed using LC/MS/MS.
Plasma concentration-time profiles of the tested compound in Sprague-Dawley rats at scheduled (nominal) sampling times were analyzed by noncompartmental pharmacokinetic methods using PK function within Watson LIMS software, Version 7.4.2 (Thermo Scientific Inc, Waltham, Mass.). AUC values were calculated using the linear trapezoidal rule.

F508del-CFTR = biological target: T1, F508del-CFTR (Homo sapiens, UniProt P13569, DEL508-508); assay: Membrane potential optical (FLIPR) assay for F508del-CFTR modulators in NIH 3T3 cells; format: cell-based; settings: NIH 3T3 cells expressing F508del; assay A1; read-out: CFTRdF508 Cor 3T3 FLIPR 384 CFTRdF508 MP 3T3 770 EC50
T1 construct: expressed in transfected cells
Outline: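 NIH3T3 mouse fibroblasts stably expressing F508del, seeded on matrigel and cultured 18-24 h at 37 °C; for correction, cells were cultured with or without compound for 18-24 h. Cells were loaded with voltage-sensing dye, then compound was added in one step with a chloride gradient (chloride replaced by gluconate). Membrane potential was read by fluorescence.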

human PXR = biological target: T2, human PXR (Homo sapiens, UniProt O75469); assay: PXR assay: PXR mediated CYP3A4 induction in DPX-2 cell line; format: cell-based; settings: DPX-2 cells
T2 construct: host or cells: DPX-2 cell line (derived from HepG2)
T2 sequence (O75469 1-434): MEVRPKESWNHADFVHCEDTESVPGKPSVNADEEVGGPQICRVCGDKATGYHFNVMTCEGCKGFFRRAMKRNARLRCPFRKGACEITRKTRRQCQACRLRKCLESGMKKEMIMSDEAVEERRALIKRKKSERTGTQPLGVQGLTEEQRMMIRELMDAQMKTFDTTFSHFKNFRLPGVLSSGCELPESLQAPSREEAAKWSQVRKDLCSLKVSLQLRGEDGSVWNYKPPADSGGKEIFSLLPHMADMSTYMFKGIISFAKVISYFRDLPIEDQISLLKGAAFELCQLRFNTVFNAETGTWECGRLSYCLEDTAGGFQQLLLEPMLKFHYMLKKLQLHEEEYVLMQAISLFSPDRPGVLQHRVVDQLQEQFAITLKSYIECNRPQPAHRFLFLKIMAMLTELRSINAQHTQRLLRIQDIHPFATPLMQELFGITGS
Outline: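 HepG2-derived DPX-2 cells stably carrying human PXR and a CYP3A4 promoter/enhancer–luciferase reporter; 11 doses from 0.1 to 60 μM for 48 h, rifampicin as positive control. Viability read by fluorescence, then luciferase luminescence; max fold induction over vehicle and EC50 reported.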

[1] = MDCK-Wild Type permeability, 96 well + 0.1% BSA; format: in vitro ADME; settings: dog, MDCK, A-B direction, read-out: MDCK-Wild Type-Permeability 96 well + 0.1% BSA Papp compound (A-B)
[2] = Metabolism of Compound 1 in vitro and in vivo

T1 sequence (P13569 with tags, fused parts or gaps DEL508-508): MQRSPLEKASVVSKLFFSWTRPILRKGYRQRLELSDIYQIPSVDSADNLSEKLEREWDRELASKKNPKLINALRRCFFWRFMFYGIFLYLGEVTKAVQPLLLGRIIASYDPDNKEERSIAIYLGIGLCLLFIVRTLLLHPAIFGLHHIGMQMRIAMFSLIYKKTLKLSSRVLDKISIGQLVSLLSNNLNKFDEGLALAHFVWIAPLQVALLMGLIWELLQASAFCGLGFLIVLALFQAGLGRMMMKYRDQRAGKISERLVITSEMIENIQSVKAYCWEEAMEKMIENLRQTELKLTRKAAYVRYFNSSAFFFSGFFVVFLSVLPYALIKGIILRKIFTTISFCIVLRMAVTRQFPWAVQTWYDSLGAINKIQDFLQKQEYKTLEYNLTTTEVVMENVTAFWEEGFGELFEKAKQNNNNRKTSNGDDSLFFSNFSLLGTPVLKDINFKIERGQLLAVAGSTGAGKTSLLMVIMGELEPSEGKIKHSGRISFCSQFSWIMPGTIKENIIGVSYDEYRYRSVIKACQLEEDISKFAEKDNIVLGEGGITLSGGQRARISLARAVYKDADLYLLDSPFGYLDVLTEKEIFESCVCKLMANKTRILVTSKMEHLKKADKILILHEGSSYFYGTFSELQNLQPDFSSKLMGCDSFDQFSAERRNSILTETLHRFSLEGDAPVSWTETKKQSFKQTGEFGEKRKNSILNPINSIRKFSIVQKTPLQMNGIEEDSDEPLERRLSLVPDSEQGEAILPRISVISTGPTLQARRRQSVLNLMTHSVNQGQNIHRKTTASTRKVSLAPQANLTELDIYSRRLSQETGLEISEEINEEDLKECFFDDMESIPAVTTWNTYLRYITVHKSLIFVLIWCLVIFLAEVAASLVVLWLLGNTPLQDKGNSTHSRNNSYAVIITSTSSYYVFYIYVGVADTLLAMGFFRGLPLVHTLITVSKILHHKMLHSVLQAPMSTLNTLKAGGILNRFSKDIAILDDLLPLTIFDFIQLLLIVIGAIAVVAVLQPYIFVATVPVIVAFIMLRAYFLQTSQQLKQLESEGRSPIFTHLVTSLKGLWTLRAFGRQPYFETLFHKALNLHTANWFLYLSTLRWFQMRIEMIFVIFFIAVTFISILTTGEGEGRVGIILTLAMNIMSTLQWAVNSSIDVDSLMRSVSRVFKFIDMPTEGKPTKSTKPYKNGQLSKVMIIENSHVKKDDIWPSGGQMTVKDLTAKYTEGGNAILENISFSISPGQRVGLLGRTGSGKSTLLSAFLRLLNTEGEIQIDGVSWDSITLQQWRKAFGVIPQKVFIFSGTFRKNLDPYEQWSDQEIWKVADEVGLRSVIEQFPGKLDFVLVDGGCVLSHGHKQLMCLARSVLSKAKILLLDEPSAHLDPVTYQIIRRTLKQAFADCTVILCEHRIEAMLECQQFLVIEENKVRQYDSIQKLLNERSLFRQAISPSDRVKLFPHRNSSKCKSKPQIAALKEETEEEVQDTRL

SMILES	Hepatocyte clearance-Rat Rat hepatocytes CL pct_unchanged (Rat hepatocytes) [%]	RAT PLASMA-RAW IV-bolus CL_drg (Rat IV and PO PK studies) [mL/min/kg]	EC50 (F508del-CFTR) [nM]	CYP3A4 Induction-PXR human PXR internal Max % Activity (human PXR) [%]	Papp A→B [1] [×10⁻⁶ cm/s]	RAT PLASMA-RAW PO % F_drg (Rat IV and PO PK studies) [%]	AUC(0-inf) (Rat IV and PO PK studies) [ng·h/mL]	metabolite identity [2]
Cc1c(S(=O)(=O)NC(=O)c2ccc(-n3ccc(OCC4(C(F)(F)F)CC4)n3)nc2N2C[C@@H](C)CC2(C)C)cnn1C [Compound 9, N-(1,5-dimethylpyrazol-4-yl)sulfonyl-6-[3-[[1-(trifluoromethyl)cyclopropyl]methoxy]pyrazol-1-yl]-2-[(4S)-2,2,4-trimethylpyrrolidin-1-yl]pyridine-3-carboxamide]	30	1.7	420	7	6.1	99	23400	–
Cc1c(S(=O)(=O)NC(=O)c2ccc(-n3ccc(OCC4C(C)(C)C4(C)C)n3)nc2N2C[C@@H](C)CC2(C)C)cnn1C [Compound 21, N-(1,5-dimethylpyrazol-4-yl)sulfonyl-6-[3-[(2,2,3,3-tetramethylcyclopropyl)methoxy]pyrazol-1-yl]-2-[(4S)-2,2,4-trimethylpyrrolidin-1-yl]pyridine-3-carboxamide]	0	6.7	520	1	3	47	3900	–
Cc1nn(C)cc1S(=O)(=O)NC(=O)c1ccc(-n2ccc(OCC(C)(C)C(F)(F)F)n2)nc1N1CC(CO)CC1(C)C (stereo not shown) [Compound 30, N-(1,3-dimethylpyrazol-4-yl)sulfonyl-2-[4-(hydroxymethyl)-2,2-dimethyl-pyrrolidin-1-yl]-6-[3-(3,3,3-trifluoro-2,2-dimethyl-propoxy)pyrazol-1-yl]pyridine-3-carboxamide]	39	–	950	4	0.6	–	–	metabolites of Compound 1
Cc1n[nH]cc1S(=O)(=O)NC(=O)c1ccc(-n2ccc(OCC(C)(C)C(F)(F)F)n2)nc1N1C[C@@H](C)CC1(C)C [Compound 31, (S)—N-((3-methyl-1H-pyrazol-4-yl)sulfonyl)-6-(3-(3,3,3-trifluoro-2,2-dimethylpropoxy)-1H-pyrazol-1-yl)-2-(2,2,4-trimethylpyrrolidin-1-yl)nicotinamide]	30	–	410	1	1.1	–	–	metabolites of Compound 1
Cc1nn(C)cc1S(=O)(=O)N1C(=O)c2ccc(-n3ccc(OCC(C)(C)C(F)(F)F)n3)nc2N2C1[C@@H](C)CC2(C)C (stereo partly shown) [Compound 36, (75)-6-((1,3-dimethyl-1H-pyrazol-4-yl)sulfonyl)-7,9,9-trimethyl-2-(3-(3,3,3-trifluoro-2,2-dimethylpropoxy)-1H-pyrazol-1-yl)-6a,7,8,9-tetrahydropyrido[3,2-e]pyrrolo[1,2-a]pyrimidin-5(6H)-one]	–	–	–	–	–	–	–	metabolites of Compound 1
C[C@@H]1CN(c2nc(-n3ccc(OCC(C)(C)C(F)(F)F)n3)ccc2C(=O)NS(=O)(=O)c2cn(C)nc2CO)C(C)(C)C1 [Compound 39, N-[3-(hydroxymethyl)-1-methyl-pyrazol-4-yl]sulfonyl-6-[3-(3,3,3-trifluoro-2,2-dimethyl-propoxy)pyrazol-1-yl]-2-[(4S)-2,2,4-trimethylpyrrolidin-1-yl]pyridine-3-carboxamide]	39	–	460	1	–	–	–	metabolites of Compound 1
C[C@H]1CC(C)(C)N2c3nc(-n4ccc(OCC(C)(C)C(F)(F)F)n4)ccc3C(=O)OC12 (stereo partly drawn) [Compound 57, (7S)-7,9,9-trimethyl-2-(3-(3,3,3-trifluoro-2,2-dimethylpropoxy)-1H-pyrazol-1-yl)-6a,7,8,9-tetrahydro-5H-pyrido[2,3-d]pyrrolo[2,1-b][1,3]oxazin-5-one]	35	–	30000	13	–	–	–	metabolites of Compound 1

Continued by falling EC50 (F508del-CFTR), values first:

Hepatocyte clearance-Rat Rat hepatocytes CL pct_unchanged (Rat hepatocytes) [%]	RAT PLASMA-RAW IV-bolus CL_drg (Rat IV and PO PK studies) [mL/min/kg]	EC50 (F508del-CFTR) [nM]	CYP3A4 Induction-PXR human PXR internal Max % Activity (human PXR) [%]	Papp A→B [1] [×10⁻⁶ cm/s]	RAT PLASMA-RAW PO % F_drg (Rat IV and PO PK studies) [%]	AUC(0-inf) (Rat IV and PO PK studies) [ng·h/mL]	metabolite identity [2]	SMILES
50	3.9	280	2	2.8	61	10500	–	Cc1c(S(=O)(=O)NC(=O)c2ccc(-n3ccc(OCCC4(C(F)(F)F)CC4)n3)nc2N2C[C@@H](C)CC2(C)C)cnn1C [Compound 14, N-(1,5-dimethylpyrazol-4-yl)sulfonyl-6-[3-[2-[1-(trifluoromethyl)cyclopropyl]ethoxy]pyrazol-1-yl]-2-[(4S)-2,2,4-trimethylpyrrolidin-1-yl]pyridine-3-carboxamide]
13	4.9	170	4	1.4	21	3000	–	Cc1nn(C)cc1S(=O)(=O)NC(=O)c1ccc(-n2ccc(OCC3C(C)(C)C3(C)C)n2)nc1N1C[C@@H](C)CC1(C)C [Compound 20, N-(1,3-dimethylpyrazol-4-yl)sulfonyl-6-[3-[(2,2,3,3-tetramethylcyclopropyl)methoxy]pyrazol-1-yl]-2-[(4S)-2,2,4-trimethylpyrrolidin-1-yl]pyridine-3-carboxamide]
117	3	130	4	11.7	65	13400	–	Cc1c(S(=O)(=O)NC(=O)c2ccc(-n3ccc(OCC(C)(C)C(F)(F)F)n3)nc2N2C[C@@H](C)CC2(C)C)cnn1C [Compound 13, N-(1,5-dimethylpyrazol-4-yl)sulfonyl-6-[3-(3,3,3-trifluoro-2,2-dimethyl-propoxy)pyrazol-1-yl]-2-[(4S)-2,2,4-trimethylpyrrolidin-1-yl]pyridine-3-carboxamide]
97	2.5	130	3	2.7	66	16300	–	Cc1nn(C)cc1S(=O)(=O)NC(=O)c1ccc(-n2ccc(OCCC3(C(F)(F)F)CC3)n2)nc1N1C[C@@H](C)CC1(C)C [Compound 15, N-(1,3-dimethylpyrazol-4-yl)sulfonyl-6-[3-[2-[1-(trifluoromethyl)cyclopropyl]ethoxy]pyrazol-1-yl]-2-[(4S)-2,2,4-trimethylpyrrolidin-1-yl]pyridine-3-carboxamide]
6	29.2	120	9	1.5	–	–	–	C[C@@H]1CN(c2nc(-n3ccc(OCC(C)(C)C)n3)ccc2C(=O)NS(=O)(=O)c2ccccc2)C(C)(C)C1 [C, reference compound]
41	1.8	90	4	2.2	80	7100	–	Cc1nn(C)cc1S(=O)(=O)NC(=O)c1ccc(-n2ccc(OCC3C4(CC4)C34CC4)n2)nc1N1C[C@@H](C)CC1(C)C [Compound 28, (S)—N-((1,3-Dimethyl-1H-pyrazol-4-yl)sulfonyl)-6-(3-(dispiro[2.0.2.1]heptan-7-ylmethoxy)-1H-pyrazol-1-yl)-2-(2,2,4-trimethylpyrrolidin-1-yl)nicotinamide]
